Like-named read-outs stand apart in the source and are kept apart here.
Legend:
MtrR = target: T1, MtrR (Neisseria gonorrhoeae, UniProt P39897); test: Isothermal titration calorimetry, wild-type MtrR with bile salts; assay type: binding; details: ITC, 25°C, 20 μM MtrR in cell, 250 μM ligand in syringe
T1 construct: A codon optimized gene of MtrR was synthesized by GenScript and cloned into the; hexahistidine tag with TEV protease site (N, cleaved yes); made in house
Experimental: Purified MtrR was dialyzed extensively against buffer containing 20 mM Tris [pH 8.0], 200 mM NaCl, 10% glycerol, and 1 mM TCEP overnight at 4°C. The stock solutions and the necessary dilutions of the bile salts were prepared using this dialysis buffer. Titrations with 20 μM MtrR in the cell and 250 μM ligand in the syringe were performed using a VP-ITC microcalorimeter (Microcal Inc.). All measurements were conducted at 25°C with a stirring speed of 200 rpm. After subtraction of germane blank data, the titration data were analyzed using the program ORIGIN 5.0.
Protein purification for Isothermal Titration Calorimetry experiments and mutant […]
A codon optimized gene of MtrR was synthesized by GenScript and cloned into the pMCSG7 vector in- frame with the N-terminal Hexa- histidine tag and tobacco etch virus (TEV) protease cleavage site. This construct was used as the template for site- directed mutagenesis and to generate wild- type data in supplemental f igures 5-6 and Isothermal Titration Calorimetry data. This protein was overexpressed and purified as described in the “Materials and Methods” of the document, except the he xa -histidine tag MtrR was cleaved by TEV protease following NiNTA affinity chromatography. Cleaved MtrR was purified from tagged MtrR and cleaved hexa- histidine tag by Ni- NTA aff inity chromatography and then further purified by size exclusion chromatography (S200).

[1] = test system: mtrCp-lacZ in FA19 (wild type); test: β-Galactosidase assay of mtrCp-lacZ fusion, strain FA19; assay type: cell-based, Neisseria gonorrhoeae
From the text: (§1) To determine if sublethal concentrations of bile salts could relieve MtrR-mediated repression of mtrC (and, by inference, the mtrCDE operon), a translational fusion of the promoter region of mtrC to lacZ was used. This fusion system was made in the wild-type (FA19) background ([41]) and cloned into mtrR deletion mutant strain JF1. Using the mtrCp-lacZ fusion, the β-galactosidase activity of the strains grown in the presence or absence of the bile salt chenodeoxycholate, taurodeoxycholate, or glycocholate was measured. The β-galactosidase levels were determined from strains grown overnight on GC agar supplemented with the bile salt at concentrations 4-fold below their specific MICs to ensure that the concentration of each bile salt was in the same biological range (the bile salt concentrations are listed in Table 2).
N. gonorrhoeae strains FA19 (wild type) and JF1 (FA19 ΔmtrR) containing a translational mtrCp-lacZ fusion with the proAB locus were used to assess the ability of bile salts to induce mtrC expression; the construction of these strains has been described previously ([41]). The MIC of bile salts for each strain used in the β-galactosidase assay was determined using a 2-fold agar dilution method ([32]). Gonococci were grown overnight on GC agar (Difco Laboratories) supplemented with a bile salt (glycocholate, chenodeoxycholate, or taurodeoxycholate) at concentrations that were 4-fold below the MIC. After overnight growth at 37°C under 3.8% (vol/vol) CO2, the bacteria were scraped from the agar plate, resuspended in 1 ml phosphate-buffered saline (pH 7.4), and lysed by freeze-thawing three times, after which the cell debris was pelleted by centrifugation. The lysate was then used to determine β-galactosidase levels as described previously ([63]). All experiments were performed in triplicate with at least three biological replicates conducted on different days.

MtrR-mtrCDE promoter = target: T2, MtrR-mtrCDE promoter (Neisseria gonorrhoeae, UniProt P39897); assay type: biochemical; details: versus no bile salt
T2 construct: nearly all 210 residues of each protomer observed, with the exception of residues 1 through 7; hexahistidine tag (thrombin-cleavable) (cleaved yes); made in house
Experimental: Thus, to rule out any effect of alkaline pH on MtrR-DNA interactions, we buffered the CAPS used in the FP assay to pH 8.0 before testing its effect on DNA binding.
Fluorescence polarization-based DNA binding experiments were performed with a Panvera Beacon 2000 fluorescence polarization system (Invitrogen) utilizing 5′-fluorescein-labeled DNA. Polarization (P) of such 5′-labeled DNA increases as a function of protein binding, and equilibrium dissociation constants are determined by curve fitting the values of millipolarization (P × 10^−3) units against the protein concentration. To determine the effects of various ligands on MtrR-DNA binding, 1 nM 5′-fluoresceinated oligodeoxynucleotide duplexes containing the mtrC operator site in 1 ml binding buffer (20 mM Tris HCl [pH 8.0], 100 mM NaCl, and 2.5% glycerol) were titrated against increasing concentrations of purified MtrR in the presence or absence of the indicated concentrations of bile salt, and the resulting changes in polarization were measured. All the samples were excited at 490 nm, and their polarized emissions were measured at 530 nm. All the data were plotted using Kaleidagraph (Synergy Software) and Prism (GraphPad Software), and the resulting plots were fitted to the following equation: P = {(Pbound − Pfree)[protein]/(KD + [protein])} + Pfree, where P is the polarization measured at a given protein concentration, Pfree is the initial polarization of the free ligand, Pbound is the maximum polarization of specifically bound ligand, KD is the equilibrium dissociation constant, and [protein] is the protein concentration. Nonlinear least-squares analysis was used to determine Pbound, and Kd. The reported binding constants are the average values from at least three independent experimental measurements.

MtrR-DNA complex = target: T3, MtrR-DNA complex (Neisseria gonorrhoeae, UniProt P39897); assay type: biochemical; details: EMSA, wild-type MtrR, mtrC promoter oligoduplex
T3 construct: nearly all 210 residues of each protomer observed, with the exception of residues 1 through 7; hexahistidine tag (thrombin-cleavable) (cleaved yes); made in house
Experimental: To test the hypothesis that these bile salts directly bind to MtrR and potentially derepress gene expression by interfering with the DNA binding activity of MtrR, MtrR-mtrC promoter interactions were tested in the presence and absence of different concentrations of several bile salts. […] It is important to note that this is a competition assay that, due to its experimental design, requires the use of 3 μM DNA and 4 to 10 μM MtrR dimer. Consequently, this means that ∼99.9% of all DNA is MtrR bound.
Complementary oligodeoxynucleotides containing the MtrR binding site from the mtrC promoter (top strand, 5′-[sequence]-3′; an unusual pseudo-direct repeat is underlined) were annealed by heating an equimolar mixture of the top and bottom strands at 95°C for 5 min, followed by slow cooling to room temperature. Binding reactions were carried out in 20-μl volumes of binding buffer (20 mM Tris [pH 8.0], 200 mM NaCl, 10% glycerol, and 1 mM TCEP) containing 1 μg oligoduplex, 1 μg poly(dI-dC), and 4 to 10 μg MtrR. After a 20-minute incubation at room temperature, the preformed complex was incubated with or without various concentrations of selected bile salts at room temperature for an additional 10 min. […] The gels were stained with ethidium bromide and visualized and analyzed with an Alpha Innotech gel documentation instrument. The intensities of free DNA were measured with ImageJII ([61], [62]).

[2] = test system: mtrCp-lacZ in JF1 (FA19 ΔmtrR); assay type: cell-based, Neisseria gonorrhoeae
From the text: as §1
N. gonorrhoeae strains FA19 (wild type) and JF1 (FA19 ΔmtrR) containing a translational mtrCp-lacZ fusion with the proAB locus were used to assess the ability of bile salts to induce mtrC expression; the construction of these strains has been described previously ([41]). The MIC of bile salts for each strain used in the β-galactosidase assay was determined using a 2-fold agar dilution method ([32]). […]

T2 sequence (P39897 whole entry): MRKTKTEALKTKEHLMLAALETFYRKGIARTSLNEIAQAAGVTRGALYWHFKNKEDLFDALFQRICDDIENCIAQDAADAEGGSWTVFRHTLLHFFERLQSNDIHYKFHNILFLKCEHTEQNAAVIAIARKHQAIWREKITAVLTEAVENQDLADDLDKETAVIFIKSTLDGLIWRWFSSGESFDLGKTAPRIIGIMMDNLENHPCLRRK
T1 sequence (P39897 whole entry): as above
T3 sequence (P39897 whole entry, one chain of several): as the sequence (P39897 whole entry) above

C[C@H](CCC(=O)NCC(=O)O)[C@H]1CC[C@H]2[C@@H]3[C@H](O)C[C@@H]4C[C@H](O)CC[C@]4(C)[C@H]3C[C@H](O)[C@]12C [Glycocholate, glycocholate]
Kd of bile salt binding to WT MtrR (MtrR): no measurable binding | MtrR-dependent derepression of the mtrC promoter ([1]; FA19 compared with ΔmtrR strain JF1, sublethal bile salt): failed to exhibit MtrR-dependent derepression | Fold increase of mtrCp-lacZ activity ([1]; strain FA19, grown on GC agar with bile salt 4-fold below MIC versus normal agar, mM concentration in parentheses in the cell): 1.43 (0.48) | Fold increase in Kd (MtrR-mtrCDE promoter; 1 mM bile salt): 1.2 | Fold increase in Kd (MtrR-mtrCDE promoter; 1 mM bile salt, listed as glycocholate): no effect | Fold increase in Kd (MtrR-mtrCDE promoter; 5 mM bile salt): 5 | Fold increase in Kd (MtrR-mtrCDE promoter; 10 mM bile salt): 6 | Concentration that disrupts the preformed MtrR-DNA complex (MtrR-DNA complex): > 40 mM | Fold increase of mtrCp-lacZ activity [2]: 2.11 (0.96)
